Assay results taken from ChEMBL document CHEMBL1201862, “PubChem BioAssay data set” (2004).
Calls of active or inactive are those of the source.

Columns and labels:
SN12K1 = assay: cells; format: functional; details: Homo sapiens
P388/ADR = assay: cells; format: functional; details: Mus musculus
P388 = assay: cells; format: functional; details: Mus musculus
[1] = reduction of Shn3 3'UTR-driven luciferase in osteoblasts – cell-based, Clone20 osteoblasts, firefly luciferase, cherry-picked, dose response (AID 624132); format: functional;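 also: firefly luciferase luminescence from reporter carrying the Shn3 3'UTR in osteoblasts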
[2] = loss of viability in HepG2 cells – cell-based, CellTiter-Glo, cherry-picked, cytotoxicity control for Shn3 inhibitor project, dose response (AID 624134); format: functional
[3] = non-specific 3'UTR reporter inhibition in Clone20-Shn3RL – cell-based, Renilla luciferase, cherry-picked, counter-screen for Shn3 inhibitor project, dose response (AID 624133); format: functional
[4] = molecular target: T1, Ubiquitin-conjugating enzyme E2 N (Homo sapiens, UniProt P61088); format: functional
T1 sequence (P61088 whole entry): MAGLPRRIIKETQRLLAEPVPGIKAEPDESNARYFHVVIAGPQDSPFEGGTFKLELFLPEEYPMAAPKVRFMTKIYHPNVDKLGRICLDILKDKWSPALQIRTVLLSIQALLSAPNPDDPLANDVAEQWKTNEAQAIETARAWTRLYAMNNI

[5] = molecular target: T1, Ubiquitin-conjugating enzyme E2 N; format: functional; remark: listed apart in the source
Bcl-2-related protein A1 = molecular target: T2, Bcl-2-related protein A1 (Mus musculus, UniProt Q07440); format: functional;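 also: confirmatory dose–response counterscreen on Bfl-1, used to check hits from a UBC13 polyubiquitin inhibitor campaign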
T2 sequence (Q07440 whole entry): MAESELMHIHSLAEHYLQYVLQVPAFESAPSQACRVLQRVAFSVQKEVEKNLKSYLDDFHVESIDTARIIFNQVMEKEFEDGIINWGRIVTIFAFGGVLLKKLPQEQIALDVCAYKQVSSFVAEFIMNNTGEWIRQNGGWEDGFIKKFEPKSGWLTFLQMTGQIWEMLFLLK

[6] = molecular target: T3, Apoptotic protease-activating factor 1 (Homo sapiens, UniProt O14727); format: functional
T3 sequence (O14727 whole entry): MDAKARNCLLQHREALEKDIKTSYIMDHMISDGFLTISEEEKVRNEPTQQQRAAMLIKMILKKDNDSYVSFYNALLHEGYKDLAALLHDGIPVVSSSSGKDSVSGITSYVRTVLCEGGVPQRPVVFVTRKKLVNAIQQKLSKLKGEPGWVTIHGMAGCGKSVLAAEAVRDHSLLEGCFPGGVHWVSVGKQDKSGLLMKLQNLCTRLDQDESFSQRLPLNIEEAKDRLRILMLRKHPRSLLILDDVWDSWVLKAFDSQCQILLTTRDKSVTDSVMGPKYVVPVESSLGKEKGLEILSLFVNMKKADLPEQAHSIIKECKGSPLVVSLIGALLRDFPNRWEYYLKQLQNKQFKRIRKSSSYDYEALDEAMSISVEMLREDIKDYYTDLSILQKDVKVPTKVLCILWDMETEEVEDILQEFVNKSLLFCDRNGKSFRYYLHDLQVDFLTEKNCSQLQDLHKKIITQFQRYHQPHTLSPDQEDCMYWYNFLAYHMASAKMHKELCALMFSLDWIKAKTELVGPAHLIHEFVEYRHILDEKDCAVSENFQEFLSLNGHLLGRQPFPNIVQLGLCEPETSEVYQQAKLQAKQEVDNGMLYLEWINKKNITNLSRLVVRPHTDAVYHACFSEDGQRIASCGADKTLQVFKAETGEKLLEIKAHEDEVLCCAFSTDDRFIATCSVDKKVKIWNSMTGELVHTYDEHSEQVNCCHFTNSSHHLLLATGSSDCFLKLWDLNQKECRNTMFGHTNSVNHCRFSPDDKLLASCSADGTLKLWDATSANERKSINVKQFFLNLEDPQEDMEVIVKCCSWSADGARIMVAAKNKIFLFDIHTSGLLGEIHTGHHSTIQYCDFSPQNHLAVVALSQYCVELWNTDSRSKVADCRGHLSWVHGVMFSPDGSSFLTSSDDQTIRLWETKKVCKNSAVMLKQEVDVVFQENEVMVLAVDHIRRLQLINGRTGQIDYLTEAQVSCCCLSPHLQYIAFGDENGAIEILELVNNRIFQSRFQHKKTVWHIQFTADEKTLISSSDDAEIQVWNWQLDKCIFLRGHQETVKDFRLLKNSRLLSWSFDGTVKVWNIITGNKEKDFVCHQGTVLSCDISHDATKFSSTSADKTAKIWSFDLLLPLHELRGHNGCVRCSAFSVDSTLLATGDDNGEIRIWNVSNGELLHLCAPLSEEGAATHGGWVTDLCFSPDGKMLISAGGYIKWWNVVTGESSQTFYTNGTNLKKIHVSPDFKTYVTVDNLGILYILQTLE

Leucine aminopeptidase = molecular target: T4, Leucine aminopeptidase (Plasmodium falciparum 3D7, UniProt Q8IL11); assay: P. falciparum M17LAP inhibitors, primary screen, biochemical, fluorogenic H-Leu-NHMec substrate, 1536-well (AID 1619); format: functional
T4 sequence (Q8IL11 whole entry): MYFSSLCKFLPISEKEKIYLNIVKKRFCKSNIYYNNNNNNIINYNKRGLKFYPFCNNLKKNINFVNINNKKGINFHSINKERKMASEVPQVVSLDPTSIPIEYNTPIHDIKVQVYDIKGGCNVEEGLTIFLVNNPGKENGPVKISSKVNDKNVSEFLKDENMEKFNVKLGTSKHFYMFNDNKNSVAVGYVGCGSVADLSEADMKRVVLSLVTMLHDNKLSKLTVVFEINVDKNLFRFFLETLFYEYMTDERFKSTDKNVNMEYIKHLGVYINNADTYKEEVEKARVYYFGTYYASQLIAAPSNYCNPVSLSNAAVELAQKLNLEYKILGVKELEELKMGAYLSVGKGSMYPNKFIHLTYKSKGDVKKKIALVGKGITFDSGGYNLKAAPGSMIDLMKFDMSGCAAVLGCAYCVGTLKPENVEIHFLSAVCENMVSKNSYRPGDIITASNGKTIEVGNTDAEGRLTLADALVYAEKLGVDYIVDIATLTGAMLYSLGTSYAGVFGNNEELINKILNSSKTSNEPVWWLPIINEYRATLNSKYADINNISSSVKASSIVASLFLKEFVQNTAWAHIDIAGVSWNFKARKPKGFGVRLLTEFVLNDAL

Melanocortin receptor 4 = Melanocortin receptor 4 (Homo sapiens, UniProt P32245); format: functional, cell-based;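 also: Cell-based assay with luminescence read-out, confirmatory dose-response testing for agonist activity of biased ligands at MC4R; human U2OS cells with tagged receptor and beta-arrestin; potency of agonists that increase receptor coupling to beta-arrestin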
Sequence of Melanocortin receptor 4 (P32245 whole entry): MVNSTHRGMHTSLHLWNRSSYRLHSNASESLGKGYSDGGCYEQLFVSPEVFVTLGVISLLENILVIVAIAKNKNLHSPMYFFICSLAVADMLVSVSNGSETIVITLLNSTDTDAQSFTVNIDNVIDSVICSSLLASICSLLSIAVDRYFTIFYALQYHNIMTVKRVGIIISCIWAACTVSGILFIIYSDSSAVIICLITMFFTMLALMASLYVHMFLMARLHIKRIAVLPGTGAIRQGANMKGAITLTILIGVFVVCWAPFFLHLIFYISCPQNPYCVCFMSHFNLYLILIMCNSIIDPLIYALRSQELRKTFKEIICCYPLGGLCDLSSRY

cells [7] = format: functional, cell-based
cells [8] = format: functional, cell-based; remark: listed apart in the source
[9] = molecular target: Photoreceptor-specific nuclear receptor (Homo sapiens, UniProt Q9Y5X4); format: functional, cell-based;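 also: CHO-S cells with Gal4-NCOR and VP16-NR2E3 two-hybrid luciferase reporter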
Sequence of Photoreceptor-specific nuclear receptor (Q9Y5X4 whole entry, the tested form may be a part): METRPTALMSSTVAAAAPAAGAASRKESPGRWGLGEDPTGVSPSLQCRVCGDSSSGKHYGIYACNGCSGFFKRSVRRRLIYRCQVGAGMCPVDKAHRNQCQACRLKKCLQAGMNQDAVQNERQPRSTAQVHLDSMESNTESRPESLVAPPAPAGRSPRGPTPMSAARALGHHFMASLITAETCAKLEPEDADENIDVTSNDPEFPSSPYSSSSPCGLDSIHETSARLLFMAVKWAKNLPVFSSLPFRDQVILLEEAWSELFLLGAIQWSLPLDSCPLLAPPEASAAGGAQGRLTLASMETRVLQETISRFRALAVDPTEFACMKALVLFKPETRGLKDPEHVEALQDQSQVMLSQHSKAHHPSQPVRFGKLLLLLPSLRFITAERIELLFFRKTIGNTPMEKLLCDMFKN

[10] = molecular target: T5, Replicative DNA helicase DnaB (Mycobacterium tuberculosis, UniProt P9WMR3); assay: DnaB intein splicing inhibitors, dose response, biochemical, cell-free fluorescence (AID 449749); format: functional
T5 sequence (P9WMR3 whole entry): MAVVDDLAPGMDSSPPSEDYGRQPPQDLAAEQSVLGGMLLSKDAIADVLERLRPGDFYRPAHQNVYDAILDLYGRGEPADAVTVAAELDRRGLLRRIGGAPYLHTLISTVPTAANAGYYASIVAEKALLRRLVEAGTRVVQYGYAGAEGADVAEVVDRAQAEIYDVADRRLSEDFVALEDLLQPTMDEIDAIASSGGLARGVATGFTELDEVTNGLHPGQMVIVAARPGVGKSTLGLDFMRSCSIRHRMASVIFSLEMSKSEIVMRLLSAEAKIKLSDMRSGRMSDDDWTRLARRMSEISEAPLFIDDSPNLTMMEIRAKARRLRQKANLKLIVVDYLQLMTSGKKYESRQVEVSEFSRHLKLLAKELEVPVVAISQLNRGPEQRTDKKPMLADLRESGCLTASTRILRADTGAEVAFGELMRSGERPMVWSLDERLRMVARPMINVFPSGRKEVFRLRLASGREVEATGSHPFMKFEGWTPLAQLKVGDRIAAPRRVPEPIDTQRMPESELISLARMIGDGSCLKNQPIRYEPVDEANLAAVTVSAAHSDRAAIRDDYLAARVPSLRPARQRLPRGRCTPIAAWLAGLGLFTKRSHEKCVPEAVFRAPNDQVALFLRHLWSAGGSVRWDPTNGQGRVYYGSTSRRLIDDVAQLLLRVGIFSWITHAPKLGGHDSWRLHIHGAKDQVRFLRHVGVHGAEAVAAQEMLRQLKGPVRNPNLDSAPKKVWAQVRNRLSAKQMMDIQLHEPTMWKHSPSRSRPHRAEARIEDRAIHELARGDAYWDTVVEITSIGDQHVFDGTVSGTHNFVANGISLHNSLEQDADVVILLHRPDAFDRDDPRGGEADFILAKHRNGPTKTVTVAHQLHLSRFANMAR

Protein RecA = molecular target: T6, Protein RecA (Mycobacterium tuberculosis, UniProt P9WHJ3); assay: Fluorescence Cell-Free Homogeneous Dose Retest to Identify Inhibitors of RecA-Intein Splicing Activity. [Related pubchem assays (depositor defined):AID2097, AID2223, AID489010, AID492950]; format: functional
T6 sequence (P9WHJ3 whole entry): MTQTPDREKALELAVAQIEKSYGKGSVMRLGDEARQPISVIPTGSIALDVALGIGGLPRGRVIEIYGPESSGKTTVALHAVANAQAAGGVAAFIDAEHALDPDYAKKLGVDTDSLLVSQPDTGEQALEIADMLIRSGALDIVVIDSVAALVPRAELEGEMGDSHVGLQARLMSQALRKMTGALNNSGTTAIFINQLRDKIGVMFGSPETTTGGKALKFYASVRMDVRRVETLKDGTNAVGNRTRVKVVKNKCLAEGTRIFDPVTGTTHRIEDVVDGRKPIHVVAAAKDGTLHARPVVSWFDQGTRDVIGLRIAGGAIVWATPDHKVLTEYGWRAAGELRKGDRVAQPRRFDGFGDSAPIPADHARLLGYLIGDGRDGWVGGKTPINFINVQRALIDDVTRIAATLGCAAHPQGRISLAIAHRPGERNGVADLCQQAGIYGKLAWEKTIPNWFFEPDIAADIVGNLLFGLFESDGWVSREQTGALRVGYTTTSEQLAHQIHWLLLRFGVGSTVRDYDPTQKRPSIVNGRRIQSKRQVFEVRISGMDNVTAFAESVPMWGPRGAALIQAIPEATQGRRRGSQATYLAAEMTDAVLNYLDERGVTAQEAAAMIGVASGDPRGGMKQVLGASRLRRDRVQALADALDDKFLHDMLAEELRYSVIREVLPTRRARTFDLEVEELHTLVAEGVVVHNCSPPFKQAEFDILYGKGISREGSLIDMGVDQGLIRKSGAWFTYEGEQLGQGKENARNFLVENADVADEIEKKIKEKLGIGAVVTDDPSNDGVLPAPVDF

[11] = HGIII-sPLA2 enzyme inhibition potency – biochemical, QFRET, IC50, dose response (AID 743457);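 also: green fluorescence rise as the enzyme cleaves BODIPY PC-A2 in liposomes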
[12] = Fluorescence-based cell-based high throughput dose response assay for inhibitors of the interaction of nucleotide-binding oligomerization domain containing 2 (NOD2) and the receptor-interacting serine-threonine kinase 2 (RIPK2).; format: functional; details: Homo sapiens
[13] = molecular target: T7, Low molecular weight phosphotyrosine protein phosphatase (Homo sapiens, UniProt P24666); format: functional; details: read-out: IC50_Mean;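 also: Dose-response confirmation assay measuring inhibition of LMPTP enzyme activity by fluorescence intensity read-out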
T7 sequence (P24666 whole entry): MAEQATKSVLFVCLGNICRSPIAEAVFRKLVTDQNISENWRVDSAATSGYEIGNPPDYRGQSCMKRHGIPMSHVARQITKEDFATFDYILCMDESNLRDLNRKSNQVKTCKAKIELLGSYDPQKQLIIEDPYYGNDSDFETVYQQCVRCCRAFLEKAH

COc1ccc2nc3ccccc3c(NCCN(C)CCCl)c2c1
GI50 (SN12K1): 0.684 µM (active)
GI50 (P388/ADR): 0.424 µM (active)
GI50 (P388): 0.256 µM (active)

CN(Cc1ccc(Cl)c(Cl)c1)C(=O)c1cccc(S(=O)(=O)N2CCN(Cc3ccccc3)CC2)c1
AC50 [1]: 3.47 µM (active)
AC50 [2]: > 70 µM (inactive)
AC50 [3]: 7.2 µM (active)
IC50 [4]: 12.5 µM (active)
IC50 [5]: 18.4 µM (active)
IC50 (Bcl-2-related protein A1): > 20 µM (inactive)
IC50 [6]: 42.7 µM (active)

COC1=CC(=O)c2c(c(O)c3oc4cc(OC)cc(C)c4c(=O)c3c2O)C1=O [BIKAVERIN]
GI50 (SN12K1): 0.422 µM (active)
GI50 (P388/ADR): 1.04 µM (active)
GI50 (P388): 0.695 µM (active)

C/C(=C\c1ccco1)C1C(C#N)=C(N)Oc2[nH]nc(-c3ccc(C)cc3)c21 (centres undefined)
IC50 (Leucine aminopeptidase): 132 µM (active)
EC50 (Melanocortin receptor 4): > 89.2 µM (inactive)

CN1C(=O)c2ccccc2NC(=O)c2cnn(C)c21
GI50 (SN12K1): > 100 µM (inactive)
GI50 (P388/ADR): > 100 µM (inactive)
GI50 (P388): > 100 µM (inactive)

CC1OC(NCCc2ccccc2)C(O)C(O)C1O (centres undefined)
EC50 (cells [7]): > 29.9 µM (inactive)
IC50 (cells [8]): > 29.9 µM (inactive)

CN(CC(=O)Nc1ccccc1Cl)C(=O)c1cccc(S(=O)(=O)N2CCN(c3ccc(F)cc3)CC2)c1
AC50 [1]: 3.62 µM (active)
AC50 [2]: > 70 µM (inactive)
AC50 [3]: 3.53 µM (active)
IC50 [9]: 8.34 µM (active)

CC(=O)N(C1=C(N2CCOCC2)C(=O)c2ccccc2C1=O)c1ccc(C(=O)O)cc1
AC50 [10]: 16.7 µM (active)
EC50 (Protein RecA): 1.01 µM (active)
IC50 [6]: 26.2 µM (active)

Cc1csc(NC(=S)NC(=O)c2ccccc2)n1
IC50 [11]: > 122 µM (inactive)

Nc1ccn(C2OC(COP(=O)(O)Oc3ccccc3)C(O)C2O)c(=O)n1 (centres undefined)
GI50 (SN12K1): 5.56 µM (inactive)
GI50 (P388/ADR): 0.675 µM (active)
GI50 (P388): 0.264 µM (active)

CN(C)CCC(=O)C(Cc1ccccc1)c1ccccc1 (centres undefined)
IC50 [4]: > 20 µM (inactive)
IC50 [5]: 13.3 µM (active)
IC50 (Bcl-2-related protein A1): > 20 µM (inactive)
IC50 [12]: 4.6 µM (active)

CC(=O)Nc1cc(-c2cccnc2)cn2c(-c3cccc(C(F)(F)F)c3)cnc12
EC50 (Melanocortin receptor 4): 84.1 µM (inactive)

CCn1cc(C(=O)O)c(=O)c2cc(F)c(N3CCN(C(=S)NC(=O)c4ccccc4Cl)CC3)cc21
IC50 [13]: 5.84 µM (active)

Cc1nnc(C)c2c(C)n(-c3ccc4ncccc4c3)c(C)c12
IC50 [13]: 45.2 µM (inactive)

CC(=O)c1c(C)[nH]c(C(=O)OCC(=O)c2ccc(Br)cc2)c1C
IC50 [9]: 3.35 µM (active)
